For series [1], the system named is bacterial (E. coli) inflammatory lesions (pus capsule). Briefly: Biodistribution (pus capsule to contralateral tissue ratio) in rats with bacterial infection. The class given is in vivo. The note with it: for Pus Capsule and Contralateral Tissue (T/B) Ratio, biodistribution: i.v., 10 μCi/rat ^67 Ga (n=2), 5 μCi/rat ^125 IUdR (n=5), mean ± SD. As for the experimental part:
(§1) A frozen sample of E. coli bacteria (clinical isolate; ATCC 9339) was used to inoculate a 10 ml trypticase soy medium (trypticase soy broth, BBL #11768, 30 g/L water), and the tube was incubated overnight at […] This culture was used to grow single colonies by streaking the sample on agar plates (100 mm petri dishes each containing 15 ml of […] in the same medium). Good colonies develop in 10-11 hours at 37° C. The agar plates containing bacterial colonies were stored upside down at 4° C. A single colony of bacteria from the agar plate was used to inoculate 10 ml trypticase soy medium, and the tube was incubated overnight at 37° C. with vigorous shaking. Two ml of this overnight culture was transferred into 100 ml trypticase soy medium and the sample incubated at 37° C. with vigorous shaking until the culture reached an OD600 of ~0.8 (in about 2 hrs). This 100 ml culture contained ~6.4×10^10 bacterial cells (1 OD600 =8×10^8 cells/ml).
(§2) The culture was centrifuged at 5500 rpm for 5 min at 4° C. in a Sorvall SS-34 rotor, the bacterial pellet resuspended in saline to give ~2.5×10^9 bacteria/ml, and 0.1 ml of resuspended cells injected into the left thigh muscle of each anesthetized rat.
No-carrier added radioiodinated deoxyuridine (^125 IUdR) was synthesized by the method described in the above disclosure. Commercially available gallium-67 citrate of known biodistribution characteristics was obtained, for comparison to ^125 IUdR. 24 hrs after each rat described in Example 2 received an intramuscular injection of E. coli or after each rat described in Example 1 received an intramuscular injection of turpentine oil (to permit comparison of activity in a bacterial inflammation lesions to activity in a sterile inflammation lesions) in the left rear thigh, each rat received either ^125 IUdR (about 5 μCi/rat) or gallium-67 citrate (about 10 μCi/rat) suspended in 0.1 ml saline, by injection into the tail vein.
At one, three and 24 hrs after ^125 IUdR or gallium-67 citrate administration, the animals from each group were anesthetized, blood collected via cardiac puncture, urine aspirated from the urinary bladder, and the rats humanely sacrificed. The biodistribution of each radiopharmaceutical (measured as a function of the % injected dose/gram body weight) was then determined in various normal tissues and organs, as well as the left and right legs, the pus capsule formed within the leg and in contralateral muscle tissues (i.e., background tissues unaffected by inflammation) of equivalent weight.
To determine the distribution of each radiopharmaceutical in various tissues of each rat (i.e., the "biodistribution" of each radiopharmaceutical), samples of background tissues and organs (blood, lung, liver, spleen, kidney, muscle and intestine), of target tissue (the pus capsule formed in the leg) and of contralateral muscle tissue (background tissue adjacent to target tissue) were obtained from each rat and weighed. Radioactivity in each sample was measured in a well-type gamma counter (from LKB, Wallac Oy, Finland). To correct for radioactive decay and permit calculation of activity in each organ or tissue as a fraction of the injected dosage of radiopharmaceutical, aliquots of the injected doses were counted at the same time that radioactivity in each sample was determined. The results were measured as a function of the percentage of injected dose/gram (% ID/g). For further reference regarding measurements of biodistribution of radiopharmaceuticals, particularly in blood, those of ordinary skill in the art may wish to refer to Baker et al., "The Laboratory Rat" (Acad.Press N.Y., 1980).
Ab = %ID/g over contralateral muscle

Series [2] has the same test system. In words: Gamma camera imaging of rats with bacterial infection. The class given is in vivo. Particulars: i.v.; for Figure of Merit (FOM), equation (1): 0.2 mCi ^67 Ga-citrate (n=3); for Figure of Merit (FOM), equation (1) / Pus Capsule to Contralateral Tissue (T/B) Ratio, gamma camera imaging: 1.5 mCi/rat ^123 IUdR (n=4); for Figure of Merit (FOM), equation (1) / Pus Capsule to Contralateral Tissue (T/B) Ratio, gamma camera imaging / Figure of Merit (FOM), equation (2): mean ± SD; for Pus Capsule to Contralateral Tissue (T/B) Ratio, gamma camera imaging: 0.2 mCi/rat ^67 Ga (n=3); for Figure of Merit (FOM), equation (2): n=3 (^67 Ga), n=4 (^123 IUdR). Further details: key to Figure of Merit (FOM), equation (1): FOM=(At-Ab)^2/(At+Ab), from total counts target vs background. The procedure: as §1, §2
A further set of rats prepared as described in Examples 1 and 2 received intravenous injections of either ^123 IUdR (at a dose of about 1.5 mCi/rat) or gallium-67 citrate (at a dose of about 0.2 mCi/rat). After 1, 3 and 24 hours, rats from each group were anesthetized and imaged using a gamma camera (the General Electric STARCAM™ 400 fitted with parallel hole medium collimator). Anterior images were obtained 10^6 counts/frame except for the 24 h period for ^123 IUdR where a 15 min scan was carried out. A 20% window was present over the 159 keV photopeaks of ^67 Ga (93 kev, 184 keV, and 298 keV).
Regions of interest (ROI) were drawn over the inflamed areas (3×4 pixel) and over the contralateral area in each rat. Total counts in these regions were used to calculate Target to Background (T/B) ratios and to calculate Figure of Merit (FOM; statistical significance) values using either of the following equations:
FOM=(At -Ab)^2 /(At +Ab) (1)
At =counts in ROI (3×4) over pus capsule; and
Ab =counts in ROI (3×4) over contralateral muscle.
Equation (1) is derived from the Report of the National Council on Radiation Protection and Measurements, Nuclear Medicine, "Factors Influencing the Choice and Use of Radionuclides in Diagnosis and Therapy", Report No. 70, p.79 (NRCP, Bethesda, Md., 1982). Equation (2) is derived from Rubin et al., J. Nucl. Med. 30:385-389, 1989. For purposes of reference, the disclosures of each of these publications is incorporated herein.

In the case of `O=C([O-])CC(O)(CC(=O)[O-])C(=O)[O-].[67Ga+3]` [^67 Ga, gallium-67 citrate], in series [1] (bacterial (E. coli) inflammation), the “concentration within lesion (pus capsule) vs contralateral tissues (in words)” value is “to a greater extent than in the contralateral tissues”. For the same compound, the “Pus Capsule and Contralateral Tissue (T/B) Ratio, biodistribution” value in series [1] (bacterial infection, 3 h) amounted to 3.21 ± 0.13; in series [1] (bacterial infection, 24 h), 4.07 ± 1.09. In addition, in series [1] (bacterial infection, FIGS. 1 and 5), the “time of accumulation at the site of inflammation (in words)” value is reported as “did not accumulate at the site of inflammation until several hours after its administration”. In addition, the “detection of the lesion in scintigraphic images (in words)” value in series [2] (1, 3, and 24 h) is reported as “can clearly detect the lesion”. The results for the “Figure of Merit (FOM), equation (1)” value in series [2] (1 h), in series [2] (3 h) and in series [2] (24 h) were 49 ± 60, 306 ± 210 and 231 ± 135, respectively. For the same compound, the “Pus Capsule to Contralateral Tissue (T/B) Ratio, gamma camera imaging” value in series [2] (1 h) was found to be 1.26 ± 0.09; in series [2] (3 h) it was 2.01 ± 0.24; in series [2] (24 h), 1.91 ± 0.15. The “Figure of Merit (FOM), equation (2)” value came to 0.26 ± 0.11 in series [2] (1 h), 1.01 ± 0.29 in series [2] (3 h) and 0.90 ± 0.21 in series [2] (24 h).

The values are drawn from patent publication US5811073A, “Method for radioisotopic detection and localization of inflammation in a host” (President and Fellows of Harvard College, priority 1995, dated 1998).
